Molecules are shown by their SMILES.

In test [1] the test system is Caspase 6. The test can be described thus: Caspase 6 CellProbe assay in HeLa cells (Example 6). In kind it is cell-based. As to conditions: HeLa 1.5×10^4 cells/well, 30 μM CellProbe, 1 hour. As for the experimental part: To initiate such assays, Caspase CellProbe Reagent™ (Beckman Coulter) is added to a suspension of 1.5×10^4 HeLa cells/well in a 96-well microtiter plate. The final concentration of the Caspase CellProbe Reagent™ was 30 μM. Reaction is for 1 hour and is as described in Example 1.

Test [2] has as its system Caspase 6. The test can be described thus: Caspase 6 CellProbe assay for apoptosis using HeLa cells (Example 2). In kind it is cell-based. As for the experimental part: To initiate 110 such assays, Caspase CellProbe Reagent™ (Beckman Coulter) is added to a suspension of 1.5×10^4 HeLa cells/well in a 96-well microtiter plate. The final concentration of the Caspase CellProbe Reagent™ was 30 μM. Reaction is for 1 hour.
In FIG. 5, and in the examples below, the Fluorescence Ratio is defined as: Fluorescence Ratio=Induced Fluorescence/Uninduced Fluorescence where the Induced Fluorescence is the difference between the 1 Hour Value and the Start of Assay Value, and the Uninduced Fluorescence is the difference between the 1 Hour Value and the Uninduced Start Value. In FIG. 5, data are plotted as a function of potassium glutamate or DMSO concentration. The dark columns indicate results obtained upon mixing the samples, while the light columns indicate results obtained when the samples were not mixed after the addition of glutamate.

In test [3] the test system is Caspase 3. The test can be described thus: Caspase 3 CellProbe assay with U-937 suspension cells. It is filed as cell-based. As for the experimental part:
(§1) To initiate such assays, 25 μl of Caspase CellProbe Reagent™ (Beckman Coulter) was added to a suspension of 1×10^5 U-937 cells in 110 μl of culture medium in a 96-well microtiter plate. Cells were incubated for one hour, and had been either uninduced or induced by prior incubation in the presence of 2.5 μM Camptothecin. The final concentration of the Caspase CellProbe Reagent™ was 30 μM.
(§2) In the Figures, the 5 series of columns reflect results obtained with no glycerol, 20% glycerol, 30% glycerol, 40% glycerol and 50% glycerol. The individual columns (left to right) within each data series reflect results for: unmixed sample—induced; unmixed sample—uninduced; mixed sample—induced; and mixed sample—uninduced.

The test system of test [4] is Caspase 6. The test can be described thus: Caspase 6 CellProbe assay with U-937 suspension cells. It is filed as cell-based. As to the method:
as §1, §2

Test [5] relates to Caspase 1. The test can be described thus: Caspase 1 CellProbe assay with U-937 suspension cells. It is filed as cell-based. As for the experimental part: as §1, §2
Test [6] concerns aminopeptidase. As to conditions: concentrations of approximately 10 mM; cited from earlier work.
Test [7] deals with Caspase. The test can be described thus: One hour kinetic assay detection of Caspase using U-937 cells. In kind it is cell-based. As to conditions: above the 50% DMSO concentration; due to non-specific signal from uninduced cell controls. As for the experimental part: as §1
The results shown in FIG. 4 is of kinetic signal from twenty fluorescence readings of the one hour assay. In FIG. 4, lines containing a diamond (♦) denote unmixed samples; lines containing boxes (▪) and appearing as thick lines denote mixed samples.

Test [8] deals with HeLa cells. The test can be described thus: CellProbe assay in HeLa cells with betaine (Example 4). In kind it is cell-based. To be noted: HeLa 1.5×10^4/well, 30 μM CellProbe substrate; particularly if unmixed. As to the method: For such experiments, HeLa cells are seeded overnight at 1.5×10^4/well and provided with 30 μM CellProbe substrate (final concentration).
The test system of test [9] is HeLa cells. The test can be described thus: CellProbe assay in HeLa cells with betaine (Example 5). In kind it is cell-based. As to conditions: betaine 2.0-2.4 M; HeLa 7.5×10^3/well, 25 μM CellProbe substrate; particularly if unmixed. As for the experimental part:
The enhanced detection sensitivity of the assays of the present invention resulting from the use of Betaine (at 2.0, 2.1, 2.2, 2.3, 2.4 M) is shown in FIG. 8. For such experiments, HeLa cells are seeded overnight at 7.5×10^3/well and provided with CellProbe substrate (25 μM final concentration). […] Results of similar assays conducted with 35% DMSO are shown for comparison.

Where [10] appears, read: various optimal glycerol concentrations (20-50%), U-937 cells, 30 μM CellProbe, 1 hour.

For `O=C[C@H](O)[C@H](O)[C@H](O)CO` [ribose], the “assay performance (detection sensitivity)” value (“assay performance” for short) in test [1] is recorded as “improved assay performance”.

As to `CCOC(=O)CC[C@H](N)C(=O)OCC` [glutamic acid diethyl ester], the detection sensitivity result in test [1] is “did not enhance detection sensitivity”.

As to `N[C@@H](CCC(=O)[O-])C(=O)[O-].[K+].[K+]` [glutamate, potassium glutamate], the “detection of Caspase 6 activity” value in [2] (glutamate 1.5 M, 1.7 M, 1.8 M, 2.0 M, HeLa cells, 1 hour) was “dramatic improvement”. Moreover, the assay sensitivity result in [2] (inclusion of glutamate, particularly if unmixed) was “improved assay sensitivity”.

On to `OC[C@H]1O[C@H](O[C@H]2O[C@H](CO)[C@@H](O)[C@H](O)[C@H]2O)[C@H](O)[C@@H](O)[C@@H]1O` [trehalose], for which the “assay performance” value in test [1] is “improved assay performance”.

In the case of `OCC(O)CO` [glycerol], in test [3] (raising the glycerol concentration from 0 to 50%, greater magnitude when unmixed), the “relative signal, Caspase 3” value is reported as “significant relative signal increase”. Further, in test [3] (setting [10]), the “detection of Caspase 3 activity” value is given as “dramatic improvement”. Further, in test [4] (added unmixed glycerol ~50%), the “effect on Caspase 6 assay” value is “deleterious effect”. Also, the “detection of Caspase 6 activity” value in [4] (setting [10]) is “dramatic improvement”. Besides, in test [5] (added unmixed glycerol ~40%), the “effect on Caspase 1 assay” value is listed as “deleterious effect”. The “detection of Caspase 1 activity” value in [5] (setting [10]) is listed as “dramatic improvement”.

Take `[Ca+2].[Cl-].[Cl-]` [calcium chloride]: the “effect on enzyme reaction with the assay compound” value in test [6] is “inhibitory”.

With `OCCO` [ethylene glycol], in test [1], the “assay performance” value was “improved assay performance”.

On to `C[S+](C)[O-]` [DMSO, dimethyl sulfoxide], for which, in test [7], the “signal ratio (induced/uninduced)” value is “signal ratio decrease”.

Regarding `OC[C@@H](O)[C@H](O)CO` [threitol], in test [1], the “assay performance” value is listed as “improved assay performance”.

With `C[N+](C)(C)CC(=O)O` [betaine], the assay sensitivity result in test [8] and in test [9] was “improved assay sensitivity” in each case.

For `C[N+](C)(C)[O-]` [trimethylamine N-oxide], the “assay performance” value in test [1] is listed as “improved assay performance”.

Consider `O=C(O)[C@@H]1CCCN1` [proline], for which the detection sensitivity result in test [1] is “did not enhance detection sensitivity”.

The values above are taken from US7026111B2, “Methods and reagents for improved cell-based assays” (Beckman Coulter, Inc., priority 2001, dated 2006).
